Laboratory results from patent US8642622B2, “Piperidinyl compound as a modulator of chemokine receptor activity” (Bristol-Myers Squibb Company, priority 2010, dated 2014).

Molecular target: T1, Human PXR (Homo sapiens, UniProt O75469)
T1 construct: expressed in transfected cells; host or cells: HepG2
T1 sequence (O75469 1-434): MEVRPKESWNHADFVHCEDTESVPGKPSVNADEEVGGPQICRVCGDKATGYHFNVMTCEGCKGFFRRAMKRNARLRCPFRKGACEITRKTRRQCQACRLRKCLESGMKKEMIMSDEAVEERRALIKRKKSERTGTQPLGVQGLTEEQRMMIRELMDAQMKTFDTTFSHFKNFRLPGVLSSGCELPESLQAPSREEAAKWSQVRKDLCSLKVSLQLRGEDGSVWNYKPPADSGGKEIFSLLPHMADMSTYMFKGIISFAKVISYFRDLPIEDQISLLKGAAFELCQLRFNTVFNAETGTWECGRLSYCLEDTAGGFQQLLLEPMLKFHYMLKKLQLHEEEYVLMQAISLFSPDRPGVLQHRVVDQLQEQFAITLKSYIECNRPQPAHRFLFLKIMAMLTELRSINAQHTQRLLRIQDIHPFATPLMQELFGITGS
Test: PXR transactivation assay (HepG2, CYP3A-Luc reporter)
Type: cell-based
Source text: The cell culture medium used is DMEM. […] Charcoal/dextran treated fetal bovine serum (FBS) was purchased from Hyclone (Logan, Utah). HepG2 cells were obtained from ATCC (Manassas, Va.). Human PXR-pcDNA3 and luciferase reporter containing CYP3A4 promoter, CYP3A-Luc, were generated at Bristol-Myers Squibb. White tissue culture (TC)-surface 384-well plates were purchased from Perkin Elmer (Boston, Mass.). Luciferase substrate (Steady-Glo) was purchased from Promega (Madison, Wis.). Control compounds rifampicin, mifepristone, and sulfinpyrazone were purchased from Sigma (St. Louis, Mo.).
Culture of HepG2 cells is performed in T175 flasks using DMEM containing 10% FBS. The transfection mixture contains 1 μg/mL of PXR-pcDNA3 plasmid DNA, 20 μg/ml of Cyp3A-Luc plasmid DNA, 90 μL/mL of Lipofectamine 2000, and serum-free medium. After incubating at room temperature for 20 minutes, the transfection mixture (1 ml per flask) is applied to the cells in fresh medium (20 mL per flask), and flasks incubated at 37° C. (5% CO2) overnight.
The flasks are then tapped vigorously to break up cell aggregates. After the addition of 8 mL of DMEM containing 5% charcoal/dextran-treated FBS, the entire mixture is transferred to conical tubes. Cells are then centrifuged at 1000 rpm for 5 minutes. Cell pellets are resuspended to a final count of ˜7×10^6 cells/mL in freezing media (DMEM containing 20% serum and 10% DMSO). The cell suspension is aliquoted into 15-mL polypropylene tubes, 5 mL per tube. Cells are slowly frozen by placing in a Styrofoam-insulated container at −80° C. overnight. Vials are transferred to an Ultracold (−140° C.) freezer after 24 hours for long-term storage.
Vials of cryopreserved cells are thawed rapidly in a warm water bath for five minutes. Cells are pooled and diluted to 50 mL in a 50-mL conical vial. The thawed cells are centrifuged at 1500 rpm for 5 minutes to collect the cells and the supernatant discarded. Cells are then resuspended in fresh Media II (DMEM containing 5% charcoal/dextran-treated FBS, 1% Penicillin/Streptomycin, 100 μM Non-essential Amino Acids, 1 mM Sodium Pyruvate, and 2 mM L-Glutamine), counted using the Guava Cell Counter, and diluted to 1.6×10^5 cells/ml in the same media.
Fifty microliters of cell mixture is added to wells in columns 1-23 of white tissue-culture treated 384-well plates containing 0.25 μL of test compound dissolved in 100% DMSO. Fifty microliters of Media II is added to wells in column 24. The plates are incubated at 37° C. (5% CO2) for 24 hours, then 5 μL of Alamar Blue reagent (Trek Diagnostics, Cat #00-100) is added to each well. Plates are then incubated an additional two hours at 37° C., 5% CO2 and then one hour at room temperature. […] After the fluorescence is measured, 25 μL of luciferase substrate (Steady-Glo, Promega) is added to each well. The plates are incubated for fifteen minutes at room temperature, after which the luminescence is read on a PheraStar (BMG Labtech) plate reader.
Rifampicin (10 μM), a well-known agonist of PXR, is included in each plate as an internal standard and positive control. The data is then expressed as percent control (% CTRL), where the control signal is the signal from the 10 μM rifampicin and the blank signal is that from the DMSO vehicle. % CTRL=((Compound signal−Blank signal)/(Control signal−Blank signal))*100
The EC50 is defined as the concentration corresponding to half of the maximal response derived from the fitted 20-point curve as determined using a four-parameter logistic regression model. Additionally, compounds may also be reported as EC20 or EC60.

PXR EC20 (reported as EC20) | Compound | PXR activation (in vitro screen, in words) | EC50 (HepG2, relative to 10 μM rifampicin) [µM]
– | CC(C)[C@@H](NC(=O)[C@@H]1CCC(F)(F)C1)C(=O)N1CC[C@](O)(c2ccc(Cl)cc2)[C@@](C)(O)C1 [Compound I, (R)—N—((R)-1-((3S,4S)-4-(4-chlorophenyl)-3,4-dihydroxy-3-methylpiperidin-1-yl)-3-methyl-1-oxobutan-2-yl)-3,3-difluorocyclopentanecarboxamide] | not a significant activator | > 50
1.9 (EC20) μM | CC(C)COC(=O)N[C@@H](C(=O)N1CC[C@](O)(c2ccc(Cl)cc2)C(C)(C)C1)C(C)C [Example 1083] | – | –
